Reference: patent US4839346A, “Antitumor anthracycline glycosides, intermediates thereof, and composition and use thereof” (priority 1986, dated 1989)
Converted amounts (≈) assume the structure as drawn. Read-outs that look alike come from different tables or passages of the source.

Columns and labels:
P388 cells = assay: Cytotoxic activity in vitro, cell counting after 48 hours exposure; type: cell-based; conditions: Mus musculus
Experimental: (§1) Compound IB has been tested in comparison with daunorubicin (DNR) against HeLa and P388 cells in vitro (Table 1).
(§2) Cytotoxic activity of IB in comparison
^++ CYTOTOXICITY EVALUATED AFTER 48 HOURS EXPOSURE TO THE DRUGS BY
CELL COUNTING TECHNIQUE.

[1] = tested on: disseminated Gross leukemia; assay: In vivo effect against disseminated Gross leukemia in C3H mice; conditions: for TOXIC DEATHS: evaluated on the basis of autopsy findings; for T/C %: median survival time treated/controls × 100
Experimental: (§3) EFFECT AGAINST GROSS LEUKEMIA^(A)
(§4) ^(A) EXPERIMENTS WERE PERFORMED IN C3H MICE, INOCULATED WITH 2 .times
(§5) 10^6 LEUKEMIA CELLS I.V.
(§6) ^(B) TREATMENT I.V. ON DAY 1 AFTER TUMOR INOCULUM.
(§7) ^(C) MEDIAN SURVIVAL TIME OF TREATED MICE/MEDIAN SURVIVAL TIME OF
(§8) ^(D) EVALUATED ON THE BASIS OF AUTOPSY FINDINGS.

[2] = as above; conditions: mouse, in vivo; iv, mice with disseminated Gross leukemia; read-out: maxima tolerated dose (MxTD)
Experimental: as §3, §4, §5, §6, §7, §8

HeLa cells = assay: Cytotoxic activity in vitro, colony inhibition test after 24 hours exposure; type: cell-based; conditions: Homo sapiens
Experimental: as §1, §2
^+ COLONY INHIBITION TEST AFTER 24 HOURS EXPOSURE TO THE DRUGS.

SMILES: COc1cccc2c1C(=O)c1c(O)c3c(c(O)c1C2=O)C[C@@](O)(C(C)=O)C[C@@H]3O[C@H]1C[C@H](N)[C@H](O)[C@H](C)O1 [DNR, daunorubicin, reference compound]
- IC50 (P388 cells; P388, 48 h, read-out: ID50): 8.4 ng/mL (≈ 0.0159 µM)
- TOXIC DEATHS ([1]; 10 mg/kg i.v. on day 1): 0/10
- T/C % ([1]; 10 mg/kg i.v. on day 1 after tumor inoculum): 150%
- TOXIC DEATHS ([1]; 15 mg/kg i.v. on day 1): 0/10
- T/C % ([1]; 15 mg/kg i.v. on day 1 after tumor inoculum): 183%
- TOXIC DEATHS ([1]; 22.5 mg/kg i.v. on day 1): 2/10
- T/C % ([1]; 22.5 mg/kg i.v. on day 1 after tumor inoculum): 217%
- MTD [2]: 15 mg/kg
- IC50 (HeLa cells; 24 h, read-out: ID50): 10.5 ng/mL (≈ 0.0199 µM)

SMILES: COc1cccc2c1C(=O)c1c(O)c3c(c(O)c1C2=O)C[C@@](O)(C(=O)CO)C[C@@H]3O[C@H]1C[C@@H](CN)[C@@H](O)[C@H](C)O1 [IB, 3'-desamino-3'-aminomethyl-3',4'-epi-doxorubicin]
- IC50 (P388 cells; P388, cell counting after 48 hours exposure, read-out: ID50 (the source's name)): 10 ng/mL (≈ 0.0179 µM)
- TOXIC DEATHS ([1]; 19 mg/kg i.v. on day 1): 0/10
- T/C % ([1]; 19 mg/kg i.v. on day 1 after tumor inoculum): 167%
- TOXIC DEATHS ([1]; 24.7 mg/kg i.v. on day 1): 0/10
- T/C % ([1]; 24.7 mg/kg i.v. on day 1 after tumor inoculum): 183%
- TOXIC DEATHS ([1]; 32.11 mg/kg i.v. on day 1): 1/10
- T/C % ([1]; 32.11 mg/kg i.v. on day 1 after tumor inoculum): 200%
- potency in vivo compared with DNR ([1]; administered iv): less potent than DNR
- activity in vivo compared with DNR ([1]; iv, at the maxima tolerated dose (32.11 mg/Kg; DNR MxTD=15 mg/Kg)): more active than DNR
- MTD [2]: 32.1 mg/kg
- IC50 (HeLa cells; colony inhibition test after 24 hours exposure, read-out: ID50 (the source's name)): 6.4 ng/mL (≈ 0.0115 µM)
